Results reported in patent publication US9499509B2, “Dihydrochalcone derivatives and their use as antibiotic agents” (UNIVERSITÉ DU QUÉBEC À CHICOUTIMI, priority 2012, dated 2016).
Converted amounts (≈) assume the structure as drawn.

What was measured:
WS-1 cell lines = assay: Cytotoxicity assay on WS-1 (Example 2); format: cell-based; design: unit not given here; conditions: Table 7; WS-1, 48 h
Procedure: Cytotoxicity assay. […] The WS-1 cell lines were provided by ATCC. […] The compounds tested were then added at 8 different concentrations. […] In Table 7, the therapeutic indexes of compounds IV to XXI are presented.

MRSA strains = assay: Antibiotic assay (absorption 660 nm, Example 2), MRSA strains; format: cell-based, Staphylococcus aureus
Procedure: (§1) Antibiotic agents. Gentamicin sulfate was provided by Calbiochem. Chloramphenicol was provided by Sigma-Aldrich.
(§2) Antibiotic assay. […] The bacteria strains were inoculated in nutrients broth. […] All bacteria were plated in nutrients broth at a concentration of 450 000 bacteria/m L.
(§3) Compounds IV to XXI were diluted in dimethylsulfoxide. […] The compounds were tested at 8 different concentrations.
(§4) Each well contained: 100 μL of bacteria, 100 μL of the compounds tested. The plates were incubated at 37° C. for 6 h. The absorption was read using a Varioskan flash multimode Reader™ (Thermo Scientific) at 660 nm.
(§5) MRSA. Ten (10) strains of MRSA obtained as described above were tested along with an S. aureus wild type (WT) strain (ATCC 25923).

[1] = test system: S. aureus wild type strain (ATCC 25923); assay: Antibiotic assay (absorption 660 nm, Example 2), S. aureus wild type; format: cell-based, Staphylococcus aureus; conditions: for MIC: S. aureus WT (ATCC 25923); for S. aureus WT ATCC 25923 (toxicity on bacteria): Table 7, same values as MIC of Table 6
Procedure: as §1, §2, §3, §4, §5

Compound	WS-1 (toxicity on normal cells, fibroblast) (WS-1 cell lines)	MIC (MRSA strains; MRSA 1) [µM]	MIC (MRSA strains; MRSA 2) [µM]	MIC (MRSA strains; MRSA 3) [µM]	MIC (MRSA strains; MRSA 4) [µM]	MIC (MRSA strains; MRSA 5) [µM]	MIC (MRSA strains; MRSA 6) [µM]	MIC (MRSA strains; MRSA 7) [µM]	MIC (MRSA strains; MRSA 8) [µM]	MIC (MRSA strains; MRSA 9) [µM]	MIC (MRSA strains; MRSA 10) [µM]	MIC [1] [µM]	S. aureus WT ATCC 25923 (toxicity on bacteria) [1]
O=C(CCc1ccccc1)c1c(O)cc(O)c2c1O[C@@H](c1ccc(O)cc1)CC2 [VI]	>50	3.5 ± 0.1 (≈ 1.37 µg/mL)	2.9 ± 0.2 (≈ 1.13 µg/mL)	3.8 ± 0.3 (≈ 1.48 µg/mL)	5.2 ± 0.4 (≈ 2.03 µg/mL)	4.9 ± 0.6 (≈ 1.91 µg/mL)	14.2 ± 0.9 (≈ 5.54 µg/mL)	3.4 ± 0.2 (≈ 1.33 µg/mL)	3.8 ± 0.3 (≈ 1.48 µg/mL)	4.7 ± 0.2 (≈ 1.84 µg/mL)	4.65 ± 0.06 (≈ 1.82 µg/mL)	2.7 ± 0.3 (≈ 1.05 µg/mL)	2.7 ± 0.3
O=C(CCc1ccccc1)c1c(O)cc(O)c2c1O[C@H](c1ccc(O)cc1)CC2 [V]	>50	4.1 ± 0.1 (≈ 1.6 µg/mL)	2.58 ± 0.10 (≈ 1.01 µg/mL)	3.8 ± 0.2 (≈ 1.48 µg/mL)	4.7 ± 0.4 (≈ 1.84 µg/mL)	4.4 ± 0.1 (≈ 1.72 µg/mL)	6.9 ± 0.4 (≈ 2.69 µg/mL)	3.0 ± 0.2 (≈ 1.17 µg/mL)	3.8 ± 0.4 (≈ 1.48 µg/mL)	6.2 ± 0.4 (≈ 2.42 µg/mL)	5.0 ± 0.3 (≈ 1.95 µg/mL)	2.5 ± 0.2 (≈ 0.976 µg/mL)	2.5 ± 0.2
COc1cc(O)c(C(=O)CCc2ccc(O)cc2)c2c1CC[C@H](c1ccc(O)cc1)O2 [XII]	>50	0.55 ± 0.07 (≈ 0.231 µg/mL)	0.65 ± 0.03 (≈ 0.273 µg/mL)	1.10 ± 0.07 (≈ 0.463 µg/mL)	0.64 ± 0.02 (≈ 0.269 µg/mL)	0.60 ± 0.01 (≈ 0.252 µg/mL)	0.76 ± 0.04 (≈ 0.32 µg/mL)	0.57 ± 0.06 (≈ 0.24 µg/mL)	0.641 ± 0.01 (≈ 0.27 µg/mL)	0.86 ± 0.03 (≈ 0.362 µg/mL)	0.7 ± 0.1 (≈ 0.294 µg/mL)	0.58 ± 0.02 (≈ 0.244 µg/mL)	0.58 ± 0.02
O=C(CCc1ccccc1)c1c(O)cc2c(c1O)CC(O)C(c1ccc(O)cc1)O2 (centres unmarked) [XIV]	>50	21.9 ± 0.2 (≈ 8.9 µg/mL)	25 ± 2 (≈ 10.2 µg/mL)	18 ± 1 (≈ 7.32 µg/mL)	22 ± 2 (≈ 8.94 µg/mL)	20 ± 2 (≈ 8.13 µg/mL)	20 ± 3 (≈ 8.13 µg/mL)	18.5 ± 0.4 (≈ 7.52 µg/mL)	23.4 ± 1.0 (≈ 9.51 µg/mL)	20 ± 2 (≈ 8.13 µg/mL)	11.4 ± 0.6 (≈ 4.63 µg/mL)	10.9 ± 0.6 (≈ 4.43 µg/mL)	10.9 ± 0.6
COc1cc(O)c(C(=O)CCc2ccc(O)cc2)c2c1CC[C@@H](c1ccc(O)cc1)O2 [XI]	>50	<0.39	<0.39	<0.39	<0.39	<0.39	<0.39	<0.39	<0.39	<0.39	<0.39	<0.39	<0.39
O=C(CCc1ccccc1)c1c(O)cc(O)c2c1OC(c1ccc(O)cc1)C(O)C2 (centres unmarked) [XVIII]	>50	12 ± 1 (≈ 4.88 µg/mL)	14 ± 1 (≈ 5.69 µg/mL)	15.9 ± 0.8 (≈ 6.46 µg/mL)	15 ± 1 (≈ 6.1 µg/mL)	11.5 ± 0.4 (≈ 4.67 µg/mL)	11 ± 2 (≈ 4.47 µg/mL)	7.5 ± 0.4 (≈ 3.05 µg/mL)	9.5 ± 1.0 (≈ 3.86 µg/mL)	13 ± 2 (≈ 5.28 µg/mL)	12 ± 1 (≈ 4.88 µg/mL)	9.9 ± 0.7 (≈ 4.02 µg/mL)	9.9 ± 0.7
O=C(CCc1ccccc1)c1c(O)cc(O)c2c1OC(c1ccc(O)cc1)C(O)C2 (centres unmarked) [XVII]	>50	13 ± 1 (≈ 5.28 µg/mL)	12 ± 1 (≈ 4.88 µg/mL)	16.7 ± 0.5 (≈ 6.79 µg/mL)	15 ± 1 (≈ 6.1 µg/mL)	5.1 ± 0.2 (≈ 2.07 µg/mL)	6 ± 2 (≈ 2.44 µg/mL)	8.2 ± 0.7 (≈ 3.33 µg/mL)	10.2 ± 0.8 (≈ 4.15 µg/mL)	17 ± 1 (≈ 6.91 µg/mL)	17 ± 1 (≈ 6.91 µg/mL)	13.0 ± 0.8 (≈ 5.28 µg/mL)	13.0 ± 0.8
O=C(CCc1ccccc1)c1c(O)cc2c(c1O)CC(O)C(c1ccc(O)cc1)O2 (centres unmarked) [XV]	>50	24.3 ± 0.9 (≈ 9.88 µg/mL)	27 ± 1 (≈ 11 µg/mL)	29 ± 3 (≈ 11.8 µg/mL)	22 ± 2 (≈ 8.94 µg/mL)	18 ± 2 (≈ 7.32 µg/mL)	18.9 ± 0.4 (≈ 7.68 µg/mL)	20 ± 1 (≈ 8.13 µg/mL)	17 ± 2 (≈ 6.91 µg/mL)	30 ± 1 (≈ 12.2 µg/mL)	7.8 ± 0.3 (≈ 3.17 µg/mL)	13 ± 1 (≈ 5.28 µg/mL)	13 ± 1
